Data on 18 compounds can be found in PMC9050811 (RSC Advances, 2020).

Structures are written as SMILES. ≈ marks a conversion by molar mass, not a printed value.

Assay [1] concerns MTB. The conditions noted are these: cited from earlier work.
The test system of assay [2] is MTB H37Rv. The conditions noted are these: cited from earlier work.
In assay [3] the test system is MTB H37Rv. The note with it: cited from earlier work. This is another data set of the same source.
The subject of the next assay is DNA supercoiling. The conditions noted are these: read-out: IC50 in the DNA supercoiling assay; cited from earlier work.
Assay [4] concerns MTB. The note with it: cited from earlier work. This is another data set of the same source.
The test system of assay [5] is M. tuberculosis H37Ra-lux. In words: microbe, parasite or virus in culture. The format is cell-based, Mycobacterium tuberculosis. The note with it: for IC50: Mycobacterium tuberculosis, H37RA, 168 h, read-out: M. tuberculosis H37Ra-lux IC50.
A further assay concerns Staphylococcus aureus. In words: Antibacterial screening against S. aureus. The format is cell-based. The conditions noted are these: Staphylococcus aureus, read-out: S. aureus IC50.
The next assay has as its system Escherichia coli. In words: Antibacterial screening against E. coli. In kind it is cell-based. The conditions noted are these: read-out: E. coli IC50.

Take `O=C(Nc1ccc(C(F)(F)F)cc1)c1cnccn1` [A, N-(4-(trifluoromethyl)phenyl)pyrazine-2-carboxamide]: the “MIC, anti-mycobacterial activity” value in the assay on MTB [1] was at most 0.002 µg/mL.

For `c1ccc(N2CCN(c3nc4ccccc4c4ccccc34)CC2)nc1` [H, 6-(4-(pyridin-2-yl)piperazin-1-yl)phenanthridine], in the assay with MTB H37Rv [2], the “MTB MIC against H37Rv” value was 1.56 µg/mL.

On to `Cc1ccc(NC(=O)c2cnccn2)cc1I` [C, N-(3-iodo-4-methylphenyl)pyrazine-2-carboxamide], for which the “MIC, anti-mycobacterial activity” value with MTB [1] was at most 0.002 µg/mL.

Turning to `O=C(NCCN1CCNCC1)c1cnccn1` [E, N-(2-(piperazin-1-yl)ethyl)pyrazine-2-carboxamide], the “MIC against MTB H37Rv” value in the assay with MTB H37Rv [3] was 12.2 µg/mL (≈ 51.9 µM).

As for `O=C(NCCN1CCOCC1)c1cnccn1` [F, N-(2-morpholinoethyl)pyrazine-2-carboxamide], the “MIC against MTB H37Rv” value in the assay with MTB H37Rv [3] is 8.0 µg/mL (≈ 33.9 µM).

In the case of `COc1cnc2ccc(=O)n(CCN3CCN(C(=O)Nc4ccc([N+](=O)[O-])cc4)CC3)c2c1` [4-(2-(7-methoxy-2-oxo-1,5-naphthyridin-1-(2H)-yl)ethyl)-N-(4-nitrophenyl)piperazine-1-carboxamide], the IC50 in the assay with DNA supercoiling is 0.29 µM. The “MTB MIC” value with MTB [4] is 3.45 µM.

As to `O=c1nc(N2CCN(C(=S)Nc3ccc(Cl)cc3)CC2)sc2ccc([N+](=O)[O-])cc12` [N-(4-chlorophenyl)-4-(6-nitro-4-oxo-4H-benzo[e][1,3]thiazin-2-yl)piperazine-1-carbothioamide], the IC50 in the assay on DNA supercoiling is 0.51 µM. Besides, the “MTB MIC” value in the assay with MTB [4] was 4.41 µM.

In the case of `O=S(=O)(c1ccccc1)n1cc(CN2CCN(c3nc4ccccc4c4ccccc34)CC2)nn1` [G, 6-(4-((1-(phenylsulfonyl)-1H-1,2,3-triazol-4-yl)methyl)piperazin-1-yl)phenanthridine], the “MTB MIC against H37Rv” value in the assay on MTB H37Rv [2] was 1.56 µg/mL.

Take `NC(=O)c1cnccn1` [PZA, Pyrazinamide]: in the assay with MTB [1], the “IC90, anti-mycobacterial activity” value is above 20 µg/mL and the “MIC, anti-mycobacterial activity” value was 0.008 µg/mL (≈ 0.065 µM).

Take `CCOc1ccc(C(=O)Nc2ccc(N3CCCN(C(=O)c4cnccn4)CC3)nc2)cc1` [7b, 4-Ethoxy-N-(6-(4-(pyrazine-2-carbonyl)-1,4-diazepan-1-yl)pyridin-3-yl)benzamide]: the IC50 (in assay [5]; in the assay on Staphylococcus aureus; in the assay with Escherichia coli) was above 64 µM throughout.

With `Cc1cccc(NC(=O)c2cnccn2)c1Br` [B, N-(2-bromo-3-methylphenyl)pyrazine-2-carboxamide], the “MIC, anti-mycobacterial activity” value in the assay on MTB [1] is at most 0.002 µg/mL.

Take `O=C(Nc1ccc(N2CCCN(C(=O)c3cnccn3)CC2)nc1)c1cccc([N+](=O)[O-])c1` [7f, 3-Nitro-N-(6-(4-(pyrazine-2-carbonyl)-1,4-diazepan-1-yl)pyridin-3-yl)benzamide]: the IC50 (in assay [5]; in the assay with Staphylococcus aureus; with Escherichia coli) was above 64 µM throughout.

`O=C(Nc1ccc(N2CCCN(C(=O)c3cnccn3)CC2)nc1)c1cccc(Br)c1` [7g, 3-Bromo-N-(6-(4-(pyrazine-2-carbonyl)-1,4-diazepan-1-yl)pyridin-3-yl)benzamide]: the IC50 (in assay [5]; in the assay with Staphylococcus aureus; in the assay with Escherichia coli) was above 64 µM each time.

With `Cc1ccc(NC(=O)c2cnc(C(C)(C)C)c(Cl)n2)cc1I` [D, 5-(tert-Butyl)-6-chloro-N-(3-iodo-4-methylphenyl)pyrazine-2-carboxamide], in the assay with MTB [1], the “IC50, anti-mycobacterial activity” value was 0.728 µg/mL (≈ 1.69 µM) and the “IC90, anti-mycobacterial activity” value was 0.819 µg/mL (≈ 1.91 µM).

`O=C(Nc1ccc(N2CCCN(C(=O)c3cnccn3)CC2)nc1)c1c(F)cccc1Cl` [7m, 2-Chloro-6-fluoro-N-(6-(4-(pyrazine-2-carbonyl)-1,4-diazepan-1-yl)pyridin-3-yl)benzamide]: the IC50 (in assay [5]; in the assay on Staphylococcus aureus; with Escherichia coli) was above 64 µM in each case.

Consider `O=C(Nc1ccc(N2CCN(C(=O)c3cnccn3)CC2)nc1)c1cccc(Br)c1` [6g, 3-Bromo-N-(6-(4-(pyrazine-2-carbonyl)piperazin-1-yl)pyridin-3-yl)benzamide], for which the “Anti-TB activity against M. tuberculosis H37Ra in words” value in assay [5] was “inactive”. Moreover, the IC50 (in assay [5]; with Staphylococcus aureus; in the assay with Escherichia coli) was above 64 µM each time.

Regarding `Cc1ccccc1C(=O)Nc1ccc(N2CCN(C(=O)c3cnccn3)CC2)nc1` [6h, 2-Methyl-N-(6-(4-(pyrazine-2-carbonyl)piperazin-1-yl)pyridin-3-yl)benzamide], the IC50 is 1.82 µM in assay [5], above 64 µM in the assay on Staphylococcus aureus and above 64 µM with Escherichia coli. Moreover, in assay [5] (read-out: M. tuberculosis H37Ra-lux IC90), the IC90 came out at 3.85 µM.

On to `O=C(Nc1ccc(N2CCCN(C(=O)c3cnccn3)CC2)nc1)c1ccccc1` [7a, N-(6-(4-(Pyrazine-2-carbonyl)-1,4-diazepan-1-yl)pyridin-3-yl)benzamide], for which the IC50 (in assay [5]; in the assay on Staphylococcus aureus; in the assay with Escherichia coli) was above 64 µM each time.

The IC50 is the concentration that inhibits the measured activity by half. One may read the IC90 as the concentration needed for an effect of 90%.
